Experimental data taken from the NIST ThermoML archive (doi:10.1016/j.jct.2018.11.004).

Test: molar heat capacity at saturation pressure
Details: Small (less than 1 g) adiabatic calorimetry

CC(C)[C@@H]1CC[C@@H](C)C[C@H]1O [L-menthol]
Details	molar heat capacity [J/K/mol]
5.02 K, Crystal 1	0.8545
5.31 K, Crystal 1	1.027
5.63 K, Crystal 1	1.231
5.95 K, Crystal 1	1.445
6.26 K, Crystal 1	1.675
6.62 K, Crystal 1	1.937
7 K, Crystal 1	2.276
7.37 K, Crystal 1	2.577
7.74 K, Crystal 1	2.937
8.14 K, Crystal 1	3.382
8.58 K, Crystal 1	3.847
9.03 K, Crystal 1	4.373
9.49 K, Crystal 1	4.87
9.99 K, Crystal 1	5.512
10.51 K, Crystal 1	6.205
11.04 K, Crystal 1	6.889
11.61 K, Crystal 1	7.681
12.2 K, Crystal 1	8.523
12.83 K, Crystal 1	9.473
13.48 K, Crystal 1	10.42
14.15 K, Crystal 1	11.42
14.89 K, Crystal 1	12.53
15.66 K, Crystal 1	13.66
16.43 K, Crystal 1	14.93
17.26 K, Crystal 1	16.13
18.12 K, Crystal 1	17.43
19.04 K, Crystal 1	18.89
20 K, Crystal 1	20.23
21.02 K, Crystal 1	21.71
22.08 K, Crystal 1	23.27
23.2 K, Crystal 1	24.92
24.41 K, Crystal 1	26.58
25.66 K, Crystal 1	28.24
26.93 K, Crystal 1	29.92
28.27 K, Crystal 1	31.55
29.67 K, Crystal 1	33.28
31.12 K, Crystal 1	34.98
32.66 K, Crystal 1	36.66
34.28 K, Crystal 1	38.41
36 K, Crystal 1	40.06
37.89 K, Crystal 1	42.03
39.9 K, Crystal 1	43.93
42.02 K, Crystal 1	45.96
44.24 K, Crystal 1	48.03
46.54 K, Crystal 1	50.11
48.92 K, Crystal 1	52.21
51.35 K, Crystal 1	54.32
53.83 K, Crystal 1	56.47
56.32 K, Crystal 1	58.63
58.78 K, Crystal 1	60.81
61.29 K, Crystal 1	62.85
64.03 K, Crystal 1	65.18
66.85 K, Crystal 1	67.74
69.53 K, Crystal 1	70.14
72.08 K, Crystal 1	72.41
74.6 K, Crystal 1	74.48
77.11 K, Crystal 1	76.77
79.66 K, Crystal 1	78.77
79.78 K, Crystal 1	79.07
81.5 K, Crystal 1	80.47
82.26 K, Crystal 1	80.88
83.22 K, Crystal 1	81.89
84.79 K, Crystal 1	83.06
84.94 K, Crystal 1	83.28
86.67 K, Crystal 1	84.77
87.34 K, Crystal 1	85.27
88.39 K, Crystal 1	86.22
89.9 K, Crystal 1	87.37
90.12 K, Crystal 1	87.73
91.85 K, Crystal 1	89.21
92.42 K, Crystal 1	89.76
93.59 K, Crystal 1	90.65
94.94 K, Crystal 1	91.69
95.32 K, Crystal 1	92.09
97.06 K, Crystal 1	93.51
97.47 K, Crystal 1	93.81
98.8 K, Crystal 1	95.01
100.02 K, Crystal 1	95.95
100.55 K, Crystal 1	96.44
102.3 K, Crystal 1	97.81
102.58 K, Crystal 1	98.22
104.04 K, Crystal 1	99.24
105.18 K, Crystal 1	100.4
105.8 K, Crystal 1	100.7
107.55 K, Crystal 1	102
107.78 K, Crystal 1	102.4
109.31 K, Crystal 1	103.5
111.06 K, Crystal 1	104.9
112.82 K, Crystal 1	106.2
114.58 K, Crystal 1	107.7
116.34 K, Crystal 1	109
118.11 K, Crystal 1	110.4
119.87 K, Crystal 1	111.7
121.64 K, Crystal 1	113.1
123.41 K, Crystal 1	114.4
125.18 K, Crystal 1	115.8
126.95 K, Crystal 1	117.2
128.73 K, Crystal 1	118.4
130.5 K, Crystal 1	119.8
132.28 K, Crystal 1	121.1
134.07 K, Crystal 1	122.4
135.85 K, Crystal 1	123.7
137.63 K, Crystal 1	125.1
139.41 K, Crystal 1	126.4
141.2 K, Crystal 1	127.7
142.99 K, Crystal 1	128.9
144.77 K, Crystal 1	130.2
146.56 K, Crystal 1	131.5
148.36 K, Crystal 1	132.8
150.15 K, Crystal 1	134.1
151.94 K, Crystal 1	135.3
153.73 K, Crystal 1	136.6
155.53 K, Crystal 1	137.9
157.32 K, Crystal 1	139.1
159.12 K, Crystal 1	140.4
160.91 K, Crystal 1	141.7
162.72 K, Crystal 1	143
164.52 K, Crystal 1	144.3
166.32 K, Crystal 1	145.5
168.12 K, Crystal 1	146.8
169.92 K, Crystal 1	148
171.73 K, Crystal 1	149.2
173.53 K, Crystal 1	150.5
175.33 K, Crystal 1	151.8
177.14 K, Crystal 1	153.1
178.95 K, Crystal 1	154.4
180.76 K, Crystal 1	155.6
182.56 K, Crystal 1	156.9
184.37 K, Crystal 1	158.2
186.18 K, Crystal 1	159.4
188 K, Crystal 1	160.7
189.81 K, Crystal 1	162.1
191.62 K, Crystal 1	163.3
193.43 K, Crystal 1	164.6
195.25 K, Crystal 1	165.9
197.06 K, Crystal 1	167.2
198.87 K, Crystal 1	168.5
200.69 K, Crystal 1	169.8
202.5 K, Crystal 1	171.1
204.32 K, Crystal 1	172.4
206.14 K, Crystal 1	173.7
207.95 K, Crystal 1	175
209.77 K, Crystal 1	176.4
211.6 K, Crystal 1	177.6
213.42 K, Crystal 1	178.9
215.24 K, Crystal 1	180.2
216.36 K, Crystal 1	180.9
217.07 K, Crystal 1	181.5
218.32 K, Crystal 1	182.5
218.89 K, Crystal 1	182.9
220.14 K, Crystal 1	183.7
220.72 K, Crystal 1	184.2
221.96 K, Crystal 1	185.1
222.55 K, Crystal 1	185.4
223.78 K, Crystal 1	186.5
225.6 K, Crystal 1	187.8
227.43 K, Crystal 1	189.1
229.25 K, Crystal 1	190.5
231.07 K, Crystal 1	191.9
232.89 K, Crystal 1	193.3
234.71 K, Crystal 1	194.7
236.53 K, Crystal 1	196.1
238.35 K, Crystal 1	197.4
240.18 K, Crystal 1	198.8
242 K, Crystal 1	200.2
243.83 K, Crystal 1	201.7
245.65 K, Crystal 1	203.1
247.48 K, Crystal 1	204.5
249.3 K, Crystal 1	206
251.12 K, Crystal 1	207.5
252.95 K, Crystal 1	208.9
254.77 K, Crystal 1	210.4
256.59 K, Crystal 1	212
258.41 K, Crystal 1	213.7
260.23 K, Crystal 1	215.2
262.05 K, Crystal 1	216.8
263.88 K, Crystal 1	218.5
265.7 K, Crystal 1	220.1
267.52 K, Crystal 1	221.7
269.34 K, Crystal 1	223.4
271.17 K, Crystal 1	225.1
272.99 K, Crystal 1	226.5
274.82 K, Crystal 1	227.9
276.64 K, Crystal 1	229.6
278.46 K, Crystal 1	231.1
278.81 K, Crystal 1	231.4
280.29 K, Crystal 1	232.6
280.63 K, Crystal 1	233
282.11 K, Crystal 1	234.2
282.45 K, Crystal 1	234.5
283.93 K, Crystal 1	235.8
284.26 K, Crystal 1	236.1
285.75 K, Crystal 1	237.3
286.08 K, Crystal 1	237.7
287.57 K, Crystal 1	239
287.88 K, Crystal 1	239.5
289.39 K, Crystal 1	240.8
289.68 K, Crystal 1	241.3
290.89 K, Crystal 1	242.4
291.08 K, Crystal 1	242.5
291.22 K, Crystal 1	242.6
291.47 K, Crystal 1	242.9
291.8 K, Crystal 1	243.3
292.76 K, Crystal 1	244.5
293.04 K, Crystal 1	244.4
293.06 K, Crystal 1	244.7
293.25 K, Crystal 1	244.8
293.66 K, Crystal 1	245.4
294.53 K, Crystal 1	246.2
294.86 K, Crystal 1	246.6
294.94 K, Crystal 1	246.6
295.02 K, Crystal 1	246.7
295.44 K, Crystal 1	247.2
296.68 K, Crystal 1	248.4
296.79 K, Crystal 1	248.6
296.82 K, Crystal 1	248.6
298.5 K, Crystal 1	250.6
298.55 K, Crystal 1	250.5
298.69 K, Crystal 1	250.9
312.2 K, Liquid	370.6
314.15 K, Liquid	373.6
316.02 K, Liquid	376.5
317.57 K, Liquid	379.5
317.87 K, Liquid	379.7
318.1 K, Liquid	380.3
318.47 K, Liquid	380.7
318.82 K, Liquid	381.4
319.28 K, Liquid	381.8
319.72 K, Liquid	382.6
320.06 K, Liquid	383.3
320.34 K, Liquid	383.5
320.78 K, Liquid	384.6
321.01 K, Liquid	384.9
321.31 K, Liquid	385.3
321.56 K, Liquid	385.4
322.18 K, Liquid	386.6
322.55 K, Liquid	386.9
323.31 K, Liquid	388.4
323.4 K, Liquid	388.2
323.45 K, Liquid	388.5
323.79 K, Liquid	388.8
324.01 K, Liquid	389.3
325.28 K, Liquid	391.1
325.83 K, Liquid	392
325.85 K, Liquid	392.2
327.12 K, Liquid	393.8
327.67 K, Liquid	394.8
328.34 K, Liquid	395.8
328.95 K, Liquid	396.4
329.49 K, Liquid	397.5
330.79 K, Liquid	399.1
330.84 K, Liquid	399.3
331.3 K, Liquid	400.1
332.62 K, Liquid	401.7
333.11 K, Liquid	402.5
333.33 K, Liquid	402.6
334.46 K, Liquid	404.2
335.81 K, Liquid	406
336.3 K, Liquid	406.5
338.14 K, Liquid	408.8
338.29 K, Liquid	409
339.98 K, Liquid	411.3
340.77 K, Liquid	412.1
341.82 K, Liquid	413.4
343.25 K, Liquid	415.1
343.66 K, Liquid	415.8
345.5 K, Liquid	417.9
345.72 K, Liquid	418.1
347.35 K, Liquid	419.8
348.2 K, Liquid	420.7
349.19 K, Liquid	421.7
350.66 K, Liquid	423
351.04 K, Liquid	423.4
352.88 K, Liquid	425.1
353.12 K, Liquid	425.1
354.73 K, Liquid	426.7
355.58 K, Liquid	427.2
356.58 K, Liquid	428.4
358.04 K, Liquid	429.4
358.43 K, Liquid	429.7
360.27 K, Liquid	431.1
360.49 K, Liquid	431
362.12 K, Liquid	432.6
362.94 K, Liquid	432.8
363.97 K, Liquid	433.8
365.39 K, Liquid	434.2
365.82 K, Liquid	435.5
367.67 K, Liquid	436.2
367.84 K, Liquid	435.7
